In PubChem BioAssay (NCI):
Several values for one entry are separate records, joined by “and”; a condition that tells them apart may be missing. Identical values can stand only once.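 Results reflect a 48-hour exposure of cells in 96-well plates to compound at five concentrations. GI50: concentration for 50% inhibition of growth. TGI marks complete inhibition of growth.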

The compounds below were run on HCC-2998 colon (assay: NCI-60 cell line screen, 48 h).

Compared with `CCn1c(-c2nonc2N)nc2c(C#CC(C)(C)O)nc(OC[C@H](N)c3ccccc3)cc21`, `COc1cc(C2CC(c3cccc(Br)c3)=NN2C(C)=O)cc(OC)c1OC` (stereo unspecified) is 3.4-fold lower in GI50: 3.74 µM for the first, 1.11 µM for the second.

Going from `O=C1/C(=C/c2ccc(Br)cc2)COc2ccc(O)c(O)c21` to `O=C(Nc1nc2ccc(C(F)(F)F)cc2s1)c1cc(Cl)ccc1O`, the GI50 falls from 1.54 µM to 0.781 µM (2-fold).

First: CCCCCCNC(=O)c1cc(NCc2cc(O)ccc2O)ccc1O
Second: COc1ccc(-n2cc(-c3cc(OC)c(OC)c(OC)c3)c(C(=O)C(F)(F)F)c2C)cc1
The GI50 of the first is lower: 16.1 µM for the first, greater than 100 µM for the second.

Compared with `CCn1c(-c2nonc2N)nc2c(C#CC(C)(C)O)nc(OC[C@H](N)c3ccccc3)cc21`, `CC(CCC=O)CCOCc1ccccc1` (stereo unspecified) is higher in TGI: 7.59 µM for the first, greater than 100 µM for the second.

Going from `O=C1/C(=C/c2ccc(Br)cc2)COc2ccc(O)c(O)c21` to `O=C(Nc1nc2ccc(C(F)(F)F)cc2s1)c1cc(Cl)ccc1O`, the TGI rises from 3.03 µM to 73.6 µM (24-fold).

Compared with `CCCCCCNC(=O)c1cc(NCc2cc(O)ccc2O)ccc1O`, `COc1cc(C2CC(c3cccc(Br)c3)=NN2C(C)=O)cc(OC)c1OC` (stereo unspecified) is 2-fold lower in TGI: 31 µM for the first, 15.7 µM for the second.

Compound `COc1ccc(-n2cc(-c3cc(OC)c(OC)c(OC)c3)c(C(=O)C(F)(F)F)c2C)cc1` has a TGI greater than 100 µM.

What follows are compounds tested on HCT-116 colon (assay: NCI-60 cell line screen, 48 h).

`CC(C)CCN1c2nc(Nc3cc(F)c(O)c(F)c3)ncc2N(C)C(=O)C1C` (stereo unspecified) and `CCn1c(-c2nonc2N)nc2c(C#CC(C)(C)O)nc(OC[C@H](N)c3ccccc3)cc21` are within 1.5-fold of each other in GI50: 4.37 µM for the first, 3.55 µM for the second.

First: O=C(CNc1ccc(Cl)cc1)Nc1ccc(-c2nc3ccccc3s2)cc1
Second: O=C(Nc1nc2ccc(C(F)(F)F)cc2s1)c1cc(Cl)ccc1O
The GI50 of the first is 4.2-fold higher: 1.74 µM for the first, 0.414 µM for the second.

Going from `CCCCCCCCCCCCOC1C(C(COC2OC(C3COC(C)(C)O3)C3OC(C)(C)OC23)NC(=O)Nc2ccc(C(=O)O)cc2)OC2OC(C)(C)OC21` (stereo unspecified) to `CCCCCCNC(=O)c1cc(NCc2cc(O)ccc2O)ccc1O`, the GI50 rises from 2.87 µM to 4.75 µM (1.7-fold).

Compared with `COc1ccc(/C=C(/C(=O)N2CCN(c3ccccc3)CC2)c2cc(OC)c(OC)c(OC)c2)cc1O`, `COc1ccc(-n2cc(-c3cc(OC)c(OC)c(OC)c3)c(C(=O)C(F)(F)F)c2C)cc1` is 19-fold higher in GI50: 0.37 µM for the first, 6.93 µM for the second.

Going from `O=C1/C(=C/c2ccc(Br)cc2)COc2ccc(O)c(O)c21` to `COc1cc(C2CC(c3cccc(Br)c3)=NN2C(C)=O)cc(OC)c1OC` (stereo unspecified), the GI50 falls from 0.892 µM to 0.479 µM (1.9-fold).

First: CC(C)CCN1c2nc(Nc3cc(F)c(O)c(F)c3)ncc2N(C)C(=O)C1C (stereo unspecified)
Second: CCn1c(-c2nonc2N)nc2c(C#CC(C)(C)O)nc(OC[C@H](N)c3ccccc3)cc21
The TGI of the first is 4.3-fold higher: 30.1 µM for the first, 6.99 µM for the second.

Going from `NC(=O)NC1C(c2ccccc2)=C1c1ccccc1` to `O=C(CNc1ccc(Cl)cc1)Nc1ccc(-c2nc3ccccc3s2)cc1`, the TGI falls from 38.7 µM to 3.76 µM (10-fold).

Compared with `CCCCCCCCCCCCOC1C(C(COC2OC(C3COC(C)(C)O3)C3OC(C)(C)OC23)NC(=O)Nc2ccc(C(=O)O)cc2)OC2OC(C)(C)OC21` (stereo unspecified), `CCCCCCNC(=O)c1cc(NCc2cc(O)ccc2O)ccc1O` is 2.3-fold higher in TGI: 10.8 µM for the first, 24.9 µM for the second.

`COc1ccc(/C=C(/C(=O)N2CCN(c3ccccc3)CC2)c2cc(OC)c(OC)c(OC)c2)cc1O` and `COc1ccc(-n2cc(-c3cc(OC)c(OC)c(OC)c3)c(C(=O)C(F)(F)F)c2C)cc1` cannot be ordered by TGI: greater than 100 µM for the first, greater than 100 µM for the second.

Going from `O=C1/C(=C/c2ccc(Br)cc2)COc2ccc(O)c(O)c21` to `O=C(Nc1nc2ccc(C(F)(F)F)cc2s1)c1cc(Cl)ccc1O`, the TGI rises from 2.4 µM to 11 µM (4.6-fold).

`CC(CCC=O)CCOCc1ccccc1` (stereo unspecified) and `COc1cc(C2CC(c3cccc(Br)c3)=NN2C(C)=O)cc(OC)c1OC` (stereo unspecified) cannot be ordered by TGI: greater than 100 µM for the first, greater than 55.9 µM for the second.

In the case of `CCN(CC)CCC(CNc1ccnc2cc(Cl)ccc12)c1ccc(OC)cc1` (stereo unspecified), the GI50 is reported as 5.15 µM and 1.87 µM.

With `CCN(CC)CCC(CNc1ccnc2cc(Cl)ccc12)c1ccc(OC)cc1` (stereo unspecified) the TGI was 24.7 µM and 14.4 µM.

These compounds were tested on HL-60(TB) leukemia (assay: NCI-60 cell line screen, 48 h).

Going from `CC(C)CCN1c2nc(Nc3cc(F)c(O)c(F)c3)ncc2N(C)C(=O)C1C` (stereo unspecified) to `CCn1c(-c2nonc2N)nc2c(C#CC(C)(C)O)nc(OC[C@H](N)c3ccccc3)cc21`, the GI50 rises from 2.14 µM to 5.23 µM (2.4-fold).

First: O=C(CNc1ccc(Cl)cc1)Nc1ccc(-c2nc3ccccc3s2)cc1
Second: O=C(Nc1nc2ccc(C(F)(F)F)cc2s1)c1cc(Cl)ccc1O
The GI50 of the first is 2.1-fold higher: 2.23 µM for the first, 1.04 µM for the second.

Compared with `CCCCCCCCCCCCOC1C(C(COC2OC(C3COC(C)(C)O3)C3OC(C)(C)OC23)NC(=O)Nc2ccc(C(=O)O)cc2)OC2OC(C)(C)OC21` (stereo unspecified), `CCCCCCNC(=O)c1cc(NCc2cc(O)ccc2O)ccc1O` is 3.7-fold lower in GI50: 2.12 µM for the first, 0.578 µM for the second.

Compared with `COc1ccc(/C=C(/C(=O)N2CCN(c3ccccc3)CC2)c2cc(OC)c(OC)c(OC)c2)cc1O`, `COc1ccc(-n2cc(-c3cc(OC)c(OC)c(OC)c3)c(C(=O)C(F)(F)F)c2C)cc1` is 160-fold higher in GI50: 0.239 µM for the first, 37.3 µM for the second.

Going from `O=C1/C(=C/c2ccc(Br)cc2)COc2ccc(O)c(O)c21` to `COc1cc(C2CC(c3cccc(Br)c3)=NN2C(C)=O)cc(OC)c1OC` (stereo unspecified), the GI50 falls from 0.442 µM to 0.191 µM (2.3-fold).

Going from `CC(C)CCN1c2nc(Nc3cc(F)c(O)c(F)c3)ncc2N(C)C(=O)C1C` (stereo unspecified) to `CCn1c(-c2nonc2N)nc2c(C#CC(C)(C)O)nc(OC[C@H](N)c3ccccc3)cc21`, the TGI rises from 6.47 µM to 10.1 µM (1.6-fold).

Compared with `NC(=O)NC1C(c2ccccc2)=C1c1ccccc1`, `O=C(CNc1ccc(Cl)cc1)Nc1ccc(-c2nc3ccccc3s2)cc1` is 11-fold lower in TGI: 68.3 µM for the first, 6.05 µM for the second.

Going from `CCCCCCCCCCCCOC1C(C(COC2OC(C3COC(C)(C)O3)C3OC(C)(C)OC23)NC(=O)Nc2ccc(C(=O)O)cc2)OC2OC(C)(C)OC21` (stereo unspecified) to `CCCCCCNC(=O)c1cc(NCc2cc(O)ccc2O)ccc1O`, the TGI falls from 5.45 µM to 3.41 µM (1.6-fold).

Compared with `COc1ccc(/C=C(/C(=O)N2CCN(c3ccccc3)CC2)c2cc(OC)c(OC)c(OC)c2)cc1O`, `COc1ccc(-n2cc(-c3cc(OC)c(OC)c(OC)c3)c(C(=O)C(F)(F)F)c2C)cc1` is higher in TGI: 0.575 µM for the first, greater than 100 µM for the second.

`O=C1/C(=C/c2ccc(Br)cc2)COc2ccc(O)c(O)c21` and `O=C(Nc1nc2ccc(C(F)(F)F)cc2s1)c1cc(Cl)ccc1O` are within 1.5-fold of each other in TGI: 3.28 µM for the first, 3.7 µM for the second.

Compared with `CC(CCC=O)CCOCc1ccccc1` (stereo unspecified), `COc1cc(C2CC(c3cccc(Br)c3)=NN2C(C)=O)cc(OC)c1OC` (stereo unspecified) is 82-fold lower in TGI: 45.1 µM for the first, 0.553 µM for the second.

For `CCN(CC)CCC(CNc1ccnc2cc(Cl)ccc12)c1ccc(OC)cc1` (stereo unspecified), the GI50 was 6.59 µM and 3.76 µM.

In the case of `CCN(CC)CCC(CNc1ccnc2cc(Cl)ccc12)c1ccc(OC)cc1` (stereo unspecified), the TGI is reported as 25.3 µM and 20.4 µM.
